According to PMC3671111, “A Phase I, open-label, randomized, crossover study in three parallel groups to evaluate the effect of Rifampicin, Ketoconazole, and Omeprazole on the pharmacokinetics of THC/CBD oromucosal spray in healthy volunteers” (SpringerPlus, 2013):
Values joined by “and” are separate entries in the source; they are usually repeats but may differ in a detail not shown here. Identical values can stand only once. Marks after values point to notes of the source that are not given here.

Legend:
[1] = Phase I drug-drug interaction PK, Group 1: THC/CBD spray alone or with rifampicin, plasma by GC-MS; set-up: k el / half-life: dose or concentration left out as unconfirmed; details: for CL/F / Varea/F: n = 12, mean (SD)
Experimental: (§1) Subjects received rifampicin on Days 1-9. […] Subjects received ketoconazole on Days 1-4.
(§2) Blood samples were collected at specified times and stored on ice (except rifampicin PK samples which were stored in iced water) prior to processing and storage. Plasma samples were separated by centrifugation (approximately 2500 rpm × 15 minutes at 4°C). Samples were stored in 4 mL amber glass screw top glass vials with PTFE lined screw caps labelled with Guys Drug Research (Quintiles Limited) labels. The aliquots were stored in clearly labelled containers in a freezer set at or below -20°C, until shipped for assay. Samples were shipped on dry ice at the appropriate time-points.
(§3) The assay validation was undertaken by Advanced Bioanalytical Service Laboratories (London, UK), who developed the technique after reviewing the literature, which was based on the methodology adopted by three different groups (Foltz et al. [1983]; Goodall & Basteyns [1995]; Kemp et al. [1995]), and designed with reference to FDA guidelines for industry (FDA Guidance for Industry [2012]). The method utilised protein precipitation, solvent extraction and derivatisation for the sample preparation and then sample analysis by capillary gas chromatography and detection by a mass spectrometer (GC-MS). The validation procedure investigated the calibration model with the best regression fit over the concentration range 0.1 - 100 ng/mL for CBD, THC and 11-OH-THC, as well as precision and accuracy of the method, stability, carry-over, and specificity.
(§4) Human plasma from healthy volunteers was used to prepare the standards and quality control (QC) samples, with analytes extracted using hexane/ethyl acetate (7:1 ratio), derivatised with N,O-Bis(trimethylsilyl)trifluoroacetamide. Analytic grade THC (Sigma, UK), CBD (Sigma, UK) and 11-OH-THC (Radian International and Cerillant, UK) were obtained, and three sets of CBD, THC and 11-OH-THC were used to support the study. Deuterated THC-d3 (Sigma, UK) was used as the internal standard. The GC-MS equipment was a Hewlett Packard 6890 Gas Chromatograph attached to a Hewlett Packard 5973 Mass Selective Detector. Data handling was carried out using an MS Chemstation System and the peak area ratio of the analytes to the internal standard was calculated in Excel (2000). The concentrations were calculated from the ratio data using least squares ln(y) on ln(x) regression performed in Excel (2000), and were then checked manually. Regression analysis was undertaken to find the regression model that best described the calibration data (for details, see ([Miller & Miller 1992])).
(§5) A 0.5 mL aliquot of test sample, QC or blank plasma was placed into a test tube. The blank plasma was spiked with 50 μL of the appropriate standard solution to produce the calibration standards. 50 μL of the internal standard was added to each test tube. The samples were then diluted by the addition of 500 μL of 0.1% (w/v) ascorbic acid and the protein precipitated by the addition of 1.0 mL of acetonitrile. The proteins were removed by centrifugation and the supernatant concentrated to 1 mL using nitrogen at 50 °C. The samples were then basified by the addition of 300 μL of 5M sodium hydroxide and the analytes extracted by the addition of 2.0 mL of 7:1 hexane:ethyl acetate. After mixing for 16 minutes the tubes were centrifuged and the top layer transferred into clean 3 dram vials. The solvent was removed using nitrogen at 70 °C and the dried extract resuspended in 100 μL of BSTFA and transferred to microvials, capped and placed at 70 °C for 30 minutes to derivatise the analytes. The microvials were then cooled and loaded onto the autosampler tray for analysis where 1 μL was injected onto the GC-MS system.

[2] = Phase I drug-drug interaction PK, Group 2: THC/CBD spray alone or with ketoconazole, plasma by GC-MS; set-up: k el: dose or concentration left out as unconfirmed; details: for CL/F / Varea/F: mean (SD)
Experimental: as §1, §2, §3, §4, §5

[3] = Phase I drug-drug interaction PK, Group 3: THC/CBD spray alone or with omeprazole, plasma by GC-MS; details: for CL/F / Varea/F: n = 12, mean (SD); for Cmax and AUC % Co-efficient of Variation (CV%) range: inter-subject variability
Experimental: as §1, §2, §3, §4, §5

[4] = Peak plasma concentration of CBD in normal dosing
Description: However, to investigate the potential interactions of THC and CBD with drugs which also interact with the CYP450s CYP3A4 and CYP2C19, various known inducers/inhibitors of these isoenzymes were employed and the pharmacokinetics (PKs) of their co-administration with THC/CBD spray evaluated.

CYP3A4 = tested on: CYP3A4; set-up: method as in GW unpublished data; details: one range printed for CYP3A4 and CYP2C19; ref GW unpublished data; read-out: IC50, inhibitory effect on CYP3A4; cited from earlier work
CYP2C19 = tested on: CYP2C19; set-up: method as in GW unpublished data; details: one range printed for CYP3A4 and CYP2C19; ref GW unpublished data; read-out: IC50, inhibitory effect on CYP2C19; cited from earlier work
[5] = in normal dosing; approximately; no reference given; cited from earlier work
[6] = Rifampicin and THC/CBD spray vs THC/CBD spray alone, no-interaction range 0.80 to 1.25
[7] = THC/CBD spray 4 sprays and rifampicin 600 mg after repeated daily dosing, plasma
[8] = THC/CBD spray alone, single dose 4 sprays (10.8/10 mg), rifampicin group, plasma
[9] = THC/CBD spray co-administered with rifampicin vs alone
[10] = Ketoconazole and THC/CBD spray vs THC/CBD spray alone, no-interaction range 0.80 to 1.25
[11] = THC/CBD spray 4 sprays and ketoconazole 400 mg at end of 5-day dosing period, n = 11, plasma
[12] = THC/CBD spray alone, single dose 4 sprays (10.8/10 mg), ketoconazole group, n = 12, plasma
[13] = THC/CBD spray co-administered with ketoconazole vs alone
[14] = Omeprazole and THC/CBD spray vs THC/CBD spray alone, no-interaction range 0.80 to 1.25
[15] = THC/CBD spray 4 sprays and omeprazole 40 mg at end of 6-day dosing period, plasma
[16] = THC/CBD spray alone, single dose 4 sprays (10.8/10 mg), omeprazole group, plasma
[17] = THC/CBD spray co-administered with omeprazole vs alone
[18] = male, human, plasma, oral, 40 mg

C=C(C)[C@@H]1CCC(C)=C[C@H]1c1c(O)cc(CCCCC)cc1O [CBD, cannabidiol]
Geometric mean ratio of AUC(0-inf), point estimate [1, 6]: […] | Geometric mean ratio of AUC(0-t), point estimate [1, 6]: […] | Geometric mean ratio of Cmax, point estimate [1, 6]: […] | CL/F [1, 7]: 5966 L/h and 5966 (3713)^b L/h | Varea/F [1, 7]: 34790 (20036)^b L | CL/F [1, 8]: 2817 L/h and 2817 (1913) L/h | Varea/F [1, 8]: 28312 (19355) L | % change in mean t1/2 [1, 9]: -62% | % change in median Tmax [1, 9]: +50% | Change in mean Cmax ([1]; THC/CBD spray with rifampicin vs THC/CBD spray alone): -52% | Change in mean CL/F ([1]; after multiple dose rifampicin treatment vs THC/CBD spray alone): +112% | AUC(0-inf) ([1]; male, human, plasma): 2.15 ng·h/mL | AUC(0-t) ([1]; male, human, plasma): 1.31 ng·h/mL | Cmax ([1]; male, human, plasma): 0.5 ng/mL | Tmax ([1]; male, human, plasma): 1.5 h | half-life ([1]; male, human, plasma): 4.13 h | k el ([1]; male, human, plasma): 5.44e-05 s⁻¹ | Tmax ([1]; male, human, plasma, oral): 1 h | half-life ([1]; male, human, plasma, oral): 10.9 h | Geometric mean ratio of AUC(0-inf), point estimate [2, 10]: […] | Geometric mean ratio of AUC(0-t), point estimate [2, 10]: […] | Geometric mean ratio of Cmax, point estimate [2, 10]: […] | CL/F [2, 11]: 1731 L/h and 1731 (650)^c L/h | Varea/F [2, 11]: 14349 (7076)^c L | CL/F [2, 12]: 2998 L/h and 2998 (896)^b L/h | Varea/F [2, 12]: 31994 (12794)^b L | % change in mean Tmax [2, 13]: +27% | % change in t1/2 [2, 13]: -16% | Change in mean Cmax ([2]; THC/CBD spray with ketoconazole vs THC/CBD spray alone): +89% | Change in mean CL/F ([2]; co-administered with ketoconazole vs THC/CBD spray alone): -42% | AUC(0-inf) ([2]; male, human, plasma, oral): 6.5 ng·h/mL | AUC(0-t) ([2]; male, human, plasma, oral): 4.83 ng·h/mL | Cmax ([2]; male, human, plasma, oral): 1.25 ng/mL | k el ([2]; male, human, plasma, oral): 3.97e-05 s⁻¹ | Substrate for the isoenzyme CYP3A4 (conclusion from ketoconazole interaction) ([2]; suggested by increased exposure with ketoconazole): substrates | Geometric mean ratio of AUC(0-inf), point estimate [3, 14]: […] | Geometric mean ratio of AUC(0-t), point estimate [3, 14]: […] | Geometric mean ratio of Cmax, point estimate [3, 14]: […] | CL/F [3, 15]: 4772 (4550) L/h | Varea/F [3, 15]: 24757 (16311) L | CL/F [3, 16]: 4741 (3845)^a L/h | Varea/F [3, 16]: 26298 (14532)^a L | Plasma concentrations and PK parameters compared with THC/CBD spray alone ([3]; THC/CBD spray at end of 6-day omeprazole dosing): […] | % change in Tmax [3, 17]: +9% | % change in t1/2 [3, 17]: +5% | Differences in CL/F on co-administration with omeprazole ([3]; THC/CBD spray with omeprazole vs alone): […] | Substrate for the isoenzyme CYP2C19 (conclusion from omeprazole interaction) ([3]; at the clinically relevant dose of THC/CBD spray investigated): not substrates | Cmax and AUC % Co-efficient of Variation (CV%) range ([3]; THC/CBD spray alone, omeprazole group): […] | Cmax and AUC % Co-efficient of Variation (CV%) range ([3]; THC/CBD spray in combination with omeprazole): […] | Tmax ([3]; male, human, plasma, oral): 1.15 h | half-life ([3]; male, human, plasma, oral): 5.22 h | AUC(0-inf) [3, 18]: 3.33 ng·h/mL | AUC(0-t) [3, 18]: 2.25 ng·h/mL | Cmax [3, 18]: 0.73 ng/mL | Tmax [3, 18]: 1.25 h | half-life [3, 18]: 5.46 h | k el [3, 18]: 5.83e-05 s⁻¹ | Peak plasma concentration, fold lower than the levels at which CYP inhibition may be anticipated [4]: […] | IC50 (CYP3A4): […] | IC50 (CYP2C19): 6 to 9 µM | Peak plasma concentrations [5]: […]
